# Where two headings read alike, the source gives them in different places.
# Experiments:
# [1] = system: fish; details: in vivo; cited from earlier work
# [2] = system: Erysiphe graminis; assay: in vivo fungicide screen: wheat powdery mildew (WPM); details: for % compared to control, WPM: 100 ppm, foliar spray before infection
# [3] = system: apples; details: in vivo; cited from earlier work
# [4] = system: Pyrenochaeta terrestris; assay: ED50 on fungi, mycelial growth on V-8 juice agar: Pyrenochaeta terrestris; type: cell-based; details: Setophoma terrestris, Example 5, 72 hrs, read-out: ED50 concentration, PT
# [5] = system: weeds; assay: pre-emergent and post-emergent herbicide screening tests; type: in vivo
# Excerpt: (§1) As noted above the compounds are ineffective as herbicides against one or more of the following weeds: average dicots, cocklebur, morning glory, pigweed, smartweed, velvet leaf, average monocots, barnyard grass, green foxtail, johnson grass, yellow nutsedge and the wild oat in both pre-emergent and post-emergent screening tests, at application rates of 2 lbs/acre for Compound 4, and 4 lbs/acre for Compound 5.
# [6] = system: velvet leaf; assay: herbicide screening: velvet leaf; details: in vivo
# Excerpt: as §1
# [7] = system: Pseudoperonospora cubensis; assay: in vivo fungicide screen: cucumber downy mildew (CDM); details: for % compared to control, CDM: 100 ppm, foliar spray before infection
# [8] = system: southern root knot nematode; assay: insecticide activity: southern root knot nematode; type: in vivo; details: 150 to 600 ppm
# [9] = system: Alternaria brassicicola; assay: ED50 on fungi, mycelial growth on V-8 juice agar: Alternaria brassicicola; type: cell-based; details: Example 4, 72 hrs, read-out: ED50 concentration, AB
# [10] = system: average dicots; assay: herbicide screening: average dicots; details: in vivo
# Excerpt: as §1
# [11] = system: Pellicularia filamentosa; assay: in vivo fungicide screen: rice sheath blight (RSB); details: for % compared to control, RSB: 100 ppm, foliar spray before infection
# [12] = system: Agrobacterium tumefaciens; assay: ED50 on bacteria, liquid nutrient medium: Agrobacterium tumefaciens; type: cell-based; details: 48 h, Example 9, two days, read-out: ED50 concentration, AT
# [13] = system: Saccharomyces cerevisiae from Universal Foods; assay: ED50 on yeast, liquid nutrient medium: Yeast I; type: cell-based; details: 48 h, read-out: ED50 concentration, Yeast-I
# [14] = system: southern corn rootworm; assay: insecticide activity: southern corn rootworm; type: in vivo; details: 150 to 600 ppm
# [15] = system: Puccinia recondita; assay: in vivo fungicide screen: wheat leaf rust (WLR); details: for % compared to control, WLR: 100 ppm, foliar spray before infection
# [16] = system: green foxtails; assay: herbicide screening: green foxtails; details: in vivo
# Excerpt: as §1
# [17] = system: green peach aphid; assay: insecticide activity: green peach aphid; type: in vivo; details: 150 to 600 ppm
# [18] = system: average monocots; assay: herbicide screening: average monocots; details: in vivo
# Excerpt: as §1
# [19] = system: mexican bean beetle; assay: insecticide activity: mexican bean beetle; type: in vivo; details: 150 to 600 ppm
# [20] = system: Piricularia oryzae; type: in vivo
# [21] = system: Xanthomonas campestris pv. campestris; assay: ED50 on bacteria, liquid nutrient medium: X. campestris pv. campestris; type: cell-based; details: 48 h, Example 7, two days, read-out: ED50 concentration, X.C. pv. campestris
# [22] = system: Xanthomonas campestris; assay: activity on Xanthomonas campestris; type: cell-based
# [23] = system: Helminthosporium carbonum; assay: ED50 on fungi, mycelial growth on V-8 juice agar: Helminthosporium carbonum; type: cell-based; details: Bipolaris zeicola, Example 3, 72 hrs, read-out: ED50 concentration, HC
# [24] = system: Alternaria chrysanthemi; assay: ED50 on fungi, mycelial growth on V-8 juice agar: Alternaria chrysanthemi; type: cell-based; details: Example 6, 72 hrs, read-out: ED50 concentration, AC
# [25] = system: Cladosporium herbarum; assay: ED50 on fungi, mycelial growth on V-8 juice agar: Cladosporium herbarum; type: cell-based; details: Example 2, 72 hrs, read-out: ED50 concentration, CH
# [26] = system: Phytophtora infestans; type: in vivo
# [27] = system: haploid lab strain from Yeast I; assay: ED50 on yeast, liquid nutrient medium: Yeast II; type: cell-based; details: Saccharomyces cerevisiae, 48 h, read-out: ED50 concentration, Yeast-II
# [28] = system: two-spotted spider mite; assay: insecticide activity: two-spotted spider mite; type: in vivo; details: 150 to 600 ppm
# [29] = system: signal grass; assay: herbicide screening: signal grass; details: in vivo
# [30] = system: Rhizobium japonicum; assay: ED50 on bacteria, liquid nutrient medium: Rhizobium japonicum; type: cell-based; details: Bradyrhizobium japonicum, 48 h, Example 10, two days, read-out: ED50 concentration, RJ
# [31] = system: southern armyworm; assay: insecticide activity: southern armyworm; type: in vivo; details: 150 to 600 ppm
# [32] = system: pigweed; assay: herbicide screening: pigweed; details: in vivo
# Excerpt: as §1
# [33] = system: morning glory; assay: herbicide screening: morning glory; details: in vivo
# Excerpt: as §1
# [34] = system: Xanthomonas campestris pv. carotae; assay: ED50 on bacteria, liquid nutrient medium: X. campestris pv. carotae; type: cell-based; details: 48 h, read-out: ED50 concentration, X.C. pv. carotae
# [35] = system: yellow nutsedge; assay: herbicide screening: yellow nutsedge; details: in vivo
# Excerpt: as §1
# [36] = system: smartweed; assay: herbicide screening: smartweed; details: in vivo
# Excerpt: as §1
# [37] = system: johnson grass; assay: herbicide screening: johnson grass; details: in vivo
# Excerpt: as §1
# [38] = system: cockleburr; assay: herbicide screening: cocklebur; details: in vivo
# Excerpt: as §1
# [39] = system: barnyard grass; assay: herbicide screening: barnyard grass; details: in vivo
# Excerpt: as §1
# [40] = system: wild oat; assay: herbicide screening: wild oat; details: in vivo
# Excerpt: as §1
# [41] = system: cockroaches; details: in vivo; cited from earlier work
# [42] = system: flour beetles; details: in vivo; cited from earlier work
# [43] = system: houseflies; details: in vivo; cited from earlier work
# [44] = 100 ppm, foliar spray before infection
compound,measurement,setting,value
CC(C)(C)C(=O)C(Oc1ccc(Cl)cc1)n1cncn1 (stereo not drawn) [BAYLETON],toxicity to fish,[1],toxic to fish
same,activity preventing infection of wheat by Erysiphe graminis,[2]; in vivo,100%
"CCCCNC(=O)n1c(NC(=O)OC)nc2ccccc21 [BENOMYL, methyl 1-(butylcarbamoyl)-2-benzimidazolecarbonate]",toxicity to fish,[1],toxic to fish
same,fruit finish of apples,[3],apples do not express fine fruit finish
same,activity preventing infection of wheat by Erysiphe graminis,[2]; in the range of 38-300 ppm,100%
"C=CCc1cc(OC)c(O)c2c1OCO2 [Compound 4, 6-methoxy-2,3-methylenedioxy-4-allyl phenol]",IC50,[4],10 µg/mL
same,herbicide effect against one or more of the listed weeds,[5]; 2 lbs/acre,ineffective
same,"herbicide effect, velvet leaf",[6],ineffective
same,"% compared to control, CDM",[7],0%
same,"insecticide activity, southern root knot nematode",[8],ineffective
same,IC50,[9],8 µg/mL
same,"herbicide effect, average dicots",[10],ineffective
same,"% compared to control, RSB",[11],0%
same,IC50,[12],> 200 µg/mL
same,IC50,"[13]; Example 11, liquid medium, two days",> 500 µg/mL
same,"% compared to control, WPM",[2],75%
same,"insecticide activity, southern corn rootworm",[14],ineffective
same,"% compared to control, WLR",[15],0%
same,"herbicide effect, green foxtails",[16],ineffective
same,"insecticide activity, green peach aphid",[17],ineffective
same,"herbicide effect, average monocots",[18],ineffective
same,"insecticide activity, mexican bean beetle",[19],ineffective
same,"% compared to control, RB",[20]; [44],0%
same,IC50,[21],10 µg/mL
same,effect on Xanthomonas campestris,[22],effective
same,IC50,[23],18 µg/mL
same,IC50,[24],10 µg/mL
same,IC50,[25],16.5 µg/mL
same,"% compared to control, TLB",[26]; [44],0%
same,IC50,"[27]; Example 12, liquid medium, two days",> 500 µg/mL
same,"insecticide activity, two-spotted spider mite",[28],ineffective
same,"herbicide effect, signal grass",[29],ineffective
same,IC50,[30],> 500 µg/mL
same,"insecticide activity, southern armyworm",[31],ineffective
same,"herbicide effect, pigweed",[32],ineffective
"C=CCc1cc(OC)c(OC)c2c1OCO2 [Compound 5, 4,5-dimethoxy-2,3-methylenedioxy-1-allyl benzene]",IC50,[4],10 µg/mL
same,herbicide effect against one or more of the listed weeds,[5]; 4 lbs/acre,ineffective
same,"herbicide effect, velvet leaf",[6],ineffective
same,"herbicide effect, morning glory",[33],ineffective
same,"% compared to control, CDM",[7],0%
same,effectiveness against cucumber downy mildew,[7]; in vivo,substantially ineffective
same,IC50,[9],8 µg/mL
same,IC50,[34],10 µg/mL
same,"herbicide effect, average dicots",[10],ineffective
same,"herbicide effect, yellow nutsedge",[35],ineffective
same,"herbicide effect, smartweed",[36],ineffective
same,"% compared to control, RSB",[11],0%
same,effectiveness against rice sheath blight,[11]; in vivo,substantially ineffective
same,IC50,[12],> 200 µg/mL
same,IC50,[13],> 500 µg/mL
same,"% compared to control, WPM",[2],95%
same,"% compared to control, WLR",[15],0%
same,effectiveness against wheat leaf rust,[15]; in vivo,substantially ineffective
same,"herbicide effect, green foxtails",[16],ineffective
same,"herbicide effect, average monocots",[18],ineffective
same,"% compared to control, RB",[20]; in vivo,0%
same,effectiveness against rice blast,[20]; in vivo,substantially ineffective
same,IC50,[21],10 µg/mL
same,"herbicide effect, johnson grass",[37],ineffective
same,IC50,[23],16 µg/mL
same,IC50,[24],10 µg/mL
same,IC50,[25],16 µg/mL
same,"herbicide effect, cockleburr",[38],ineffective
same,"% compared to control, TLB",[26]; in vivo,0%
same,effectiveness against tomato leaf blight,[26]; in vivo,substantially ineffective
same,IC50,[27],> 500 µg/mL
same,"herbicide effect, barnyard grass",[39],ineffective
same,"herbicide effect, wild oat",[40],ineffective
same,IC50,[30],> 500 µg/mL
same,"herbicide effect, pigweed",[32],ineffective
"CCOP(=O)(Sc1ccccc1)Sc1ccccc1 [EDIFENPHOS, O-ethyl-S,S-diphenyl-dithiophosphate]",toxicity to fish,[1],toxic to fish
same,activity preventing infection of wheat by Erysiphe graminis,[2]; in the range of 75-300 ppm,100%
"CC(C)OC(=O)C(C(=O)OC(C)C)=C1SCCS1 [FUJI-ONE, diissopropyl-1,3-dithiolau-2-ylidane malonate]",activity preventing infection of wheat by Erysiphe graminis,[2]; at up to 300 ppm,0%
C=CCOC1=NS(=O)(=O)c2ccccc21 [ORYZEMATE],activity preventing infection of wheat by Erysiphe graminis,[2]; at up to 300 ppm,0%
CCCc1cc2c(c(OC)c1OC)OCO2 [propyl analog of dillapiole],synergic with pyrethrins against cockroaches,[41],effective synergic
same,synergic with pyrethrins against flour beetles,[42],effective synergic
same,synergic with pyrethrins against houseflies,[43],effective synergic
MANCOZEB,activity preventing infection of wheat by Erysiphe graminis,[2]; at up to 300 ppm,0%

# From US4876277A, “Antimicrobial/antifungal compositions” (Plant Cell Research Institute, Inc., priority 1987, dated 1989)
